Structures are written as SMILES.

A word on the Kd: it is the equilibrium constant for the complex coming apart. The term GI50 denotes the concentration giving 50% growth inhibition. A low value points to greater sensitivity of the cells.

One test concerns the target T1, BRD4-BD1 (Homo sapiens, UniProt O60885).
T1 construct: made in house; host or cells: T7 phage grown in an E. coli host derived from BL21
The test is described as follows: bromoKdELECT assay for binding affinity to BRD4-BD1. The settings on record: Table 6. How it is done: Compounds were tested using a bromoKdELECT assay. T7 phage strains displaying bromodomains were grown in parallel in 24-well blocks in an E. coli host derived from the BL21 strain. E. coli were grown to log-phase and infected with T7 phage from a frozen stock (multiplicity of infection=0.4) and incubated with shaking at 32° C. until lysis (90-150 minutes). The lysates were centrifuged (5,000×g) and filtered (0.2 μm) to remove cell debris. Streptavidin-coated magnetic beads were treated with biotinylated small molecule or acetylated peptide ligands for 30 minutes at room temperature to generate affinity resins for bromodomain assays. The liganded beads were blocked with excess biotin and washed with blocking buffer (SeaBlock (Pierce), 1% BSA, 0.05% Tween 20, 1 mM DTT) to remove unbound ligand and to reduce nonspecific phage binding. Binding reactions were assembled by combining bromodomains, liganded affinity beads, and test compounds in 1× binding buffer (17% SeaBlock, 0.33×PBS, 0.04% Tween 20, 0.02% BSA, 0.004% Sodium azide, 7.4 mM DTT). Test compounds were prepared as 1000× stocks in 100% DMSO. Kds were determined using an 11-point 3-fold compound dilution series with one DMSO control point. All compounds for Kd measurements are distributed by acoustic transfer (non-contact dispensing) in 100% DMSO. The compounds were then diluted directly into the assays such that the final concentration of DMSO was 0.09%. All reactions performed in polypropylene 384-well plates. Each was a final volume of 0.02 ml. The assay plates were incubated at room temperature with shaking for 1 hour and the affinity beads were washed with wash buffer (1×PBS, 0.05% Tween 20). The beads were then resuspended in elution buffer (1×PBS, 0.05% Tween […] non-biotinylated affinity ligand) and incubated at room temperature with shaking for 30 minutes. The bromodomain concentration in the eluates was measured by qPCR.

The subject of test [1] is T-Rex 293 cell line SC cells lacking increased expression of progesterone receptor isoform B protein. The test is described as follows: Cellular growth inhibition, T-Rex 293 SC cells without doxycycline, Example 45. The settings on record: T-Rex 293 SC cells not exposed to doxycycline, 72 hours treatment, CellTiter-Glo 2.0. The test is classed as cell-based. How it is done:
(§1) The following types of cells were prepared for this experiment: (i) a T-Rex 293 cell line having increased expression of progesterone receptor isoform B protein due to exposure to doxycycline and (ii) a T-Rex 293 cell line lacking increased expression of progesterone receptor isoform B protein. Ability of the test compounds to inhibit proliferation of the foregoing cell types was evaluated according to the procedures set forth below.
(§2) The doxycycline-inducible progesterone receptor isoform B protein expressing cell line was established using the following protocol: T-Rex 293 cells were purchased from Invitrogen (Cat #R71007) and transfected using Lipofectamine 2000 with the wild-type progesterone receptor B protein sequence cloned into the pcDNA4/TO vector. Transfected cells were selected using 400 μg/mL Zeocin (Invitrogen Cat #R25001). Following selection, single clones were raised and maintained in Dulbecco's Modified Eagle Medium (DMEM) supplemented with 10% w/w Tetracycline-free fetal bovine serum (FBS) and 250 μg/mL Zeocin. Clones were analyzed for expression of progesterone receptor isoform B protein in the presence and absence of 10 ng/mL doxycycline (Sigma Cat #D9891), and a single doxycycline-inducible clone (hereinafter “SC”) was selected for use in downstream assays.
(§3) The SC cells were seeded on poly-D-lysine coated, black clear-bottom 384-well plates at 2500/well, in 25 μL Phenol Red Free Dulbecco's Modified Eagle Medium (DMEM) supplemented with 10% w/w charcoal-dextran treated fetal bovine serum (FBS) and 1% w/w pen-strep, with or without 10 ng/mL doxycycline. Pen-Strep is a commercially available mixture of penicillin G and streptomycin, which is used in mammalian cell culture media to prevent bacterial contamination. Phenol Red Free Dulbecco's Modified Eagle Medium (DMEM) supplemented with 10% w/w charcoal-dextran treated fetal bovine serum (FBS) and 1% w/w pen-strep, with or without 10 ng/mL doxycycline is herein referred to as Treatment Medium. Following seeding of cells in the plates, the plates were spun at 300×g for 30 seconds, then equilibrated to room temperature for 30 minutes, and then deposited in a humidified tissue culture incubator maintained at 37° C. with 5% CO2.
(§4) At 24 hours after seeding of the cells, dilutions of test compound were prepared in DMSO and dissolved in Treatment Medium, to achieve a final DMSO concentration of 0.5% w/w, thereby providing the Test Compound Solution. A 25 μL aliquot of the Test Compound Solution was added to cells in the well plates. An equal volume of a solution containing DMSO and Treatment Medium was used as a negative control. Following treatment of cells with Test Compound Solution or said equal volume of a solution containing DMSO and Treatment Medium, the plates were spun at 300×g for 30 seconds, and then left in an incubator for 72 hours.
(§5) At the end of the treatment duration, cell viability was quantified with CellTiter-Glo 2.0 reagent (Promega Cat #G9243). For this purpose, plates were equilibrated to room temperature for 30 minutes, and then 25 μL of CellTiter-Glo 2.0 reagent was added to cells in the plate wells. Plates were then agitated on a shaker for two minutes at 500 rpm and subsequently incubated at room temperature for 10 minutes. Following incubation, the plates were spun at 3000×g for 30 seconds, then sealed with an optical adhesive cover, and luminescence readings were measured with an EnVision Plate Reader (Perkin Elmer).
(§6) Data was normalized using zero luminescence for baseline. A four-parameter non-linear regression curve fit was applied to dose-response data in GraphPad Prism data analysis software to determine the half-maximal growth inhibitory concentration (GI50) for each test compound.

A short description of test [2]: Cellular growth inhibition, T-Rex 293 SC cells with doxycycline (progesterone receptor isoform B induced), Example 45. The test is classed as cell-based. The settings on record: progesterone receptor isoform B induced with 10 ng/mL doxycycline, 72 hours, CellTiter-Glo 2.0, Table 11. How it is done:
as §1, §2, §3, §4, §5, §6
For orientation: In ATP-based viability assays light output follows the ATP content of the culture.

A further test deals with T47D cells. Kind of test: Cellular growth inhibition assay for T47D cells, CellTiter-Glo. The test is classed as cell-based, human. The settings on record: Homo sapiens, T47D, 72 h, 72 hours treatment, CellTiter-Glo 2.0 cell viability. The method in brief: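 Luminescence from CellTiter-Glo 2.0 after 72 h of compound exposure gives the viability signal. Cells grew in insulin-supplemented (0.2 units/mL) DMEM with 10% FBS and were treated one day after seeding at 0.5% DMSO. GI50 values come from four-parameter nonlinear regression.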

In turn, `Cc1sc2c(c1C)C(c1ccc(Cl)cc1)=N[C@@H](CC(=O)NCCOC1CCN(c3ncc(C(=O)N[C@H]4C(C)(C)[C@H](Oc5ccc(C#N)c(Cl)c5)C4(C)C)cn3)CC1)c1nnc(C)n1-2` [Compound I-6] yielded a Kd on BRD4-BD1 of over 2500 nM. Also, the concentration for 50% growth inhibition (GI50) in test [1] and in test [2] was under 500 nM in each case.
For the molecule `CCNC(=O)C[C@@H]1N=C(c2ccc(OCCOC3CCN(c4ncc(C(=O)N[C@H]5C(C)(C)[C@H](Oc6ccc(C#N)c(Cl)c6)C5(C)C)cn4)CC3)cc2F)c2c(sc(C)c2C)-n2c(C)nnc21` [Compound I-75], the Kd at BRD4-BD1 fell in the range of 500 to 2500 nM. Also, the GI50 with T47D cells is under 500 nM.
The like results for `CCN(C)C(=O)C[C@@H]1N=C(c2ccc(CCCOC3CCN(c4ncc(C(=O)N[C@H]5C(C)(C)[C@H](Oc6ccc(C#N)c(Cl)c6)C5(C)C)cn4)CC3)cc2)c2c(sc(C)c2C)-n2c(C)nnc21` [Compound I-101] were, in that order, over 2500 nM and 500 to 1500 nM.
The like results for `Cc1sc2c(c1C)C(c1ccc(CCCOC3CCN(c4ncc(C(=O)N[C@H]5C(C)(C)[C@H](Oc6ccc(C#N)c(Cl)c6)C5(C)C)cn4)CC3)cc1)=N[C@@H](CC(=O)NC(C)C)c1nnc(C)n1-2` [Compound I-100] were, in that order, over 2500 nM and 500 to 1500 nM.
For `Cc1sc2c(c1C)C(c1ccc(Cl)cc1)=N[C@@H](CC(=O)NCCN(C)c1ncc(C(=O)N[C@H]3C(C)(C)[C@H](Oc4ccc(C#N)c(Cl)c4)C3(C)C)cn1)c1nnc(C)n1-2` [Compound I-1, N-[3-(3-chloro-4-cyano-phenoxy)-2,2,4,4-tetramethyl-cyclobutyl]-2-[2-[[2-[(9S)-7-(4-chlorophenyl)-4,5,13-trimethyl-3-thia-1,8,11,12-tetrazatricyclo[8.3.0.02,6]trideca-2(6),4,7,10,12-pentaen-9-yl]acetyl]amino]ethyl-methyl-amino]pyrimidine-5-carboxamide], in that order: 50 to 500 nM and under 500 nM.
With `Cc1sc2c(c1C)C(c1ccc(Cl)cc1)=N[C@H](CC(=O)NCCOCCOCCOCCOCCOCCOCCOC1CCN(c3ncc(C(=O)N[C@H]4C(C)(C)[C@H](Oc5ccc(C#N)c(Cl)c5)C4(C)C)cn3)CC1)c1nnc(C)n1-2` [Compound I-9], the Kd at BRD4-BD1 fell in the range of 500 to 2500 nM. Besides, the 50% growth inhibitory concentration (GI50) was 1500 to 3000 nM in test [1] and under 500 nM in test [2].
With `CCNC(=O)C[C@@H]1N=C(c2ccc(OCCOC3CCN(c4ncc(C(=O)N[C@H]5C(C)(C)[C@H](Oc6ccc(C#N)c(Cl)c6)C5(C)C)cn4)CC3)c(F)c2)c2c(sc(C)c2C)-n2c(C)nnc21` [Compound I-76], on BRD4-BD1, the Kd was in the range of 500 to 2500 nM. This molecule also gave a GI50 in the test with T47D cells of 500 to 1500 nM.
At BRD4-BD1, `CCNC(=O)C[C@@H]1N=C(c2ccc(N(C)CCN3CCN(c4ncc(C(=O)N[C@H]5C(C)(C)[C@H](Oc6ccc(C#N)c(Cl)c6)C5(C)C)cn4)CC3)cc2)c2c(sc(C)c2C)-n2c(C)nnc21` [Compound I-108] yielded a Kd of 50 to 500 nM. This molecule also showed a GI50 in the test on T47D cells of 500 to 1500 nM.
`Cc1sc2c(c1C)C(c1ccc(Cl)cc1)=N[C@@H](CC(=O)NCCOCCOCCOCCOCCN(C)c1ncc(C(=O)N[C@H]3C(C)(C)[C@H](Oc4ccc(C#N)c(Cl)c4)C3(C)C)cn1)c1nnc(C)n1-2` [Compound I-3, N-((1r,3r)-3-(3-chloro-4-cyanophenoxy)-2,2,4,4-tetramethylcyclobutyl)-2-((1-((S)-4-(4-chlorophenyl)-2,3,9-trimethyl-6H-thieno[3,2-f][1,2,4]triazolo[4,3-a][1,4]diazepin-6-yl)-2-oxo-6,9,12,15-tetraoxa-3-azaheptadecan-17-yl)(methyl)amino)pyrimidine-5-carboxamide] registered a Kd on BRD4-BD1 of 50 to 500 nM. The results for the GI50 in test [1] and in test [2] were 1500 to 3000 nM and under 500 nM, respectively.
`CCNC(=O)C[C@@H]1N=C(c2ccc(OCCOC3CCN(c4ncc(C(=O)N[C@H]5C(C)(C)[C@H](Oc6ccc(C#N)c(Cl)c6)C5(C)C)cn4)CC3)c(F)c2F)c2c(sc(C)c2C)-n2c(C)nnc21` [Compound I-73] came in with a Kd on BRD4-BD1 of 500 to 2500 nM. The GI50 with T47D cells was 500 to 1500 nM.
The like results for `CCN(C)C(=O)C[C@@H]1N=C(c2ccc(OCCOC3CCN(c4ncc(C(=O)N[C@H]5C(C)(C)[C@H](Oc6ccc(C#N)c(Cl)c6)C5(C)C)cn4)CC3)cc2)c2c(sc(C)c2C)-n2c(C)nnc21` [Compound I-66] were, in that order, 500 to 2500 nM and 500 to 1500 nM.
Consider `CCNC(=O)C[C@@H]1N=C(c2ccc(CCCC3CCN(c4ncc(C(=O)N[C@H]5C(C)(C)[C@H](Oc6ccc(C#N)c(Cl)c6)C5(C)C)cn4)CC3)cc2)c2c(sc(C)c2C)-n2c(C)nnc21` [Compound I-95], for which the Kd at BRD4-BD1 is over 2500 nM. Also, in the test on T47D cells, the GI50 is under 500 nM.
For `CCNC(=O)C[C@@H]1N=C(c2ccc(N(C)CC3CN(c4ncc(C(=O)N[C@H]5C(C)(C)[C@H](Oc6ccc(C#N)c(Cl)c6)C5(C)C)cn4)C3)cc2)c2c(sc(C)c2C)-n2c(C)nnc21` [Compound I-107], in that order: 50 to 500 nM and 500 to 1500 nM.
For `CCNC(=O)C[C@@H]1N=C(c2ccc(OCC3CN(c4ncc(C(=O)N[C@H]5C(C)(C)[C@H](Oc6ccc(C#N)c(Cl)c6)C5(C)C)cn4)C3)cc2)c2c(sc(C)c2C)-n2c(C)nnc21` [Compound I-71], in that order: 50 to 500 nM and under 500 nM.
For `Cc1sc2c(c1C)C(c1ccc(Cl)cc1)=N[C@@H](CC(=O)NCCCN1CCN(CC3CCN(c4ncc(C(=O)N[C@H]5C(C)(C)[C@H](Oc6ccc(C#N)c(Cl)c6)C5(C)C)cn4)CC3)CC1)c1nnc(C)n1-2` [Compound I-36, N-((1r,3r)-3-(3-chloro-4-cyanophenoxy)-2,2,4,4-tetramethylcyclobutyl)-2-(4-((4-(3-(2-((S)-4-(4-chlorophenyl)-2,3,9-trimethyl-6H-thieno[3,2-f][1,2,4]triazolo[4,3-a][1,4]diazepin-6-yl)acetamido)propyl)piperazin-1-yl)methyl)piperidin-1-yl)pyrimidine-5-carboxamide], in that order: 50 to 500 nM and under 500 nM.
Take `CCNC(=O)C[C@@H]1N=C(c2ccc(N(C)C3CN(CC4CCN(c5ncc(C(=O)N[C@H]6C(C)(C)[C@H](Oc7ccc(C#N)c(Cl)c7)C6(C)C)cn5)CC4)C3)cc2)c2c(sc(C)c2C)-n2c(C)nnc21` [Compound I-119]: at BRD4-BD1, the Kd lay within 50 to 500 nM. This molecule yielded a GI50 with T47D cells of under 500 nM.

Source of the values: US20260062422A1 (Halda Therapeutics OpCo, Inc., priority 2022, published 2026).
